The subject of data set [1] is T. brucei MERS1 (residues 37–395). The experiment in a line: Fluorescence polarization (FP) RNA/DNA binding to MERS1. Further details: species or system Trypanosoma brucei. As to conditions: 25 mM Tris HCl pH 7.5, 5% (v/v) glycerol, 50 mM NaCl; for Binding to MERS1, result in words: 25°C, 1 nM fluoresceinated RNA or DNA. The source says: We next used FP binding studies to assess RNA binding by purified MERS1. […] We next probed the importance of specific nucleotides in the RNA binding site by performing FP studies on mutant forms of the RNA site.
For structural studies, the nucleotides encoding residues 37–395 of MERS1 were cloned into pET15b between the BamHI and NdeI restriction sites. E. coli C41(DE3) cells were transformed with the expression plasmid and protein expression was induced by addition of isopropyl β-D-1-thiogalactopyranoside (IPTG) to a final concentration of 0.5 mM for 4 h at 37°C when the cells had reached an A600 of 0.4–0.6. The cells were reconstituted in 25 mM Tris HCl pH 7.5, 300 mM NaCl, 5% glycerol, 0.5 mM β-mercaptoethanol and lysed with a microfluidizer. The expressed MERS1 protein was found in the soluble fraction and was purified using nickel-nitrilotriacetic acid (Ni-NTA) column chromatography. The protein was further purified by Superdex 75 size exclusion column (SEC) chromatography. MERS1 mutants were made using the Quikchange mutagenesis protocol and expressed and purified as per the WT protein.
FP experiments were performed using a PanVera Beacon 2000 FP system at 25°C ([Lundblad et al. 1996]). For the experiments, purified proteins were titrated into 0.990 mL buffer composed of 25 mM Tris HCl pH 7.5, 5% (v/v) glycerol and 50 mM NaCl and containing 1 nM (final concentration) fluoresceintly labeled RNA substrate, 5′-GAGAGGGGGUU-3′, or DNA, 5′-GTGAGTACTCAC-3′. Data were fit using KaleidaGraph. Each binding curve is a representative curve from two to three technical replicates. Mutant RNA sites tested were 5′-AAGAGGGGGUU-3′ (Supplemental Fig. S2), 5′-GGGAGGGGGUU-3′, 5′-GAAAGGGGGUU-3′, 5′-GAGGGGGGGUU-3′, 5′-GAGAAGGGGUU-3′, 5-GAGAGAGGGUU-3′, 5′-GAGAGGAGGUU-3′ and 5′-GAGAGGGAGUU-3′.

The test system is the same in data set [2]. The data set is described as follows: FP peptide binding to MERS1. Further details: species or system Trypanosoma brucei. As to conditions: 25 mM Tris HCl pH 7.5, 5% (v/v) glycerol, 150 mM NaCl, 1 nM fluoresceinated peptide (Fig. 4B). The source says:
We considered that the bound helix provided from crystal packing might mimic a portion of MERS2 or MERS3 that interacts with MERS1. Thus, using the MERS1-peptide contacts we derived a consensus MERS1-peptide interacting motif, (M/L)XXALXXEL and probed the MERS2 and MERS3 sequences for similar motifs. While no homology was found between the sequence and that of MERS3, one strong match for the motif was located within the central PPR motif region of MERS2 (residues 394–402). This region is predicted to be helical and contain a PPR motif in MERS2. Attempts to purify MERS2 or a MERS2 truncation containing this PPR motif for binding analyses, however, were unsuccessful. Thus, we obtained a fluoresceinated peptide encompassing this MERS2 region, F-[…] (where underlined residues correspond to the peptide consensus residues) and utilized this peptide in FP binding studies. […] However, to test whether helical residues observed in the crystal to make contact to MERS1 are involved in binding, we obtained a fluoresceintated peptide in which the first leucine and the glutamic acid in the helix were substituted to prolines (F-[…]).
For structural studies, the nucleotides encoding residues 37–395 of MERS1 were cloned into pET15b between the BamHI and NdeI restriction sites. […]

The target in data set [3] is T1, MERS1 (Trypanosoma brucei brucei TREU927, UniProt B6SBM0 37-395).
T1 sequence: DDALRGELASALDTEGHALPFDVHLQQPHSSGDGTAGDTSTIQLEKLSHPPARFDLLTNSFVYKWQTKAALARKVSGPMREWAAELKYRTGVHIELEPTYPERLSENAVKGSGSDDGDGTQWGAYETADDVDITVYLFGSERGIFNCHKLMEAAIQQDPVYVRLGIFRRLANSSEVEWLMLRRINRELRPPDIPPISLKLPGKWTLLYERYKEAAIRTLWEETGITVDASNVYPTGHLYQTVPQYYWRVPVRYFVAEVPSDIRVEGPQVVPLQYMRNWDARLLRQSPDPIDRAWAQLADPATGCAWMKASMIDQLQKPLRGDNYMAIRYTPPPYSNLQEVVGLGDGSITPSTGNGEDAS
The experiment in a line: fluorescence polarization; FP: 25 mM Tris HCl pH 7.5, 50 mM NaCl, 5% (v/v) glycerol, 1 nM labeled RNA or DNA, 25 C. To be noted: protein: recombinant, tags: N-terminal His tag (pET15b, linker LVPRGSM); for Kd: single-stranded. A general note: Fluorescence polarisation rises when a labelled molecule tumbles more slowly, as on binding a larger partner.

Data set [4] addresses T1, MERS1. The data set is described as follows: fluorescence polarization; Results text prints the 12-mer; Methods and Fig. 5 print this 11-mer; FP: 25 mM Tris HCl pH 7.5, 50 mM NaCl, 5% (v/v) glycerol, 1 nM labeled RNA or DNA, 25 C. As to conditions: protein: recombinant; tags: N-terminal His tag (pET15b, linker LVPRGSM); single-stranded.
The target of data set [5] is T2, T. brucei MERS1(37–395), his-tagged (Trypanosoma brucei brucei TREU927, UniProt B6SBM0 37-395).
T2 construct: MERS1, Trypanosoma brucei, 395 residues; A selenomethionine-substituted form was used for phasing of the GTP crystal; also called mitochondrial edited mRNA stability factor 1; WT MERS1; source: E. coli C41(DE3), pET15b, purified (Ni-NTA, Superdex 75 SEC); not shown: His tag, N-terminal, kept
T2 sequence: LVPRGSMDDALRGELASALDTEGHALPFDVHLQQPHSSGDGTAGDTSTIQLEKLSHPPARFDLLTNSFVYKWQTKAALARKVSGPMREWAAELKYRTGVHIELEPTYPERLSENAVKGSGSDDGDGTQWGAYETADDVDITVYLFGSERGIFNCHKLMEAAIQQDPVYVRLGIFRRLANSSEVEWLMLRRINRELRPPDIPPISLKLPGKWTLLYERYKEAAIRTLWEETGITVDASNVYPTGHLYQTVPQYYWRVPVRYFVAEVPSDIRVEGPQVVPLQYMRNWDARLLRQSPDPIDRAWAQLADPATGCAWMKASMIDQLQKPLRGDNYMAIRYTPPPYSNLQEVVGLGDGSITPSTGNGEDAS
The data set is described as follows: fluorescence polarisation; purified MERS1 titrated into 1 nM fluoresceinated peptide; 25 mM Tris HCl pH 7.5, 5% (v/v) glycerol, 150 mM NaCl. As to conditions: both partners purified.

The target in data set [6] is T1, MERS1. The experiment in a line: X-ray crystallography; 2.60 A; four nucleotides resolved per subunit; FP: 25 mM Tris HCl pH 7.5, 50 mM NaCl, 5% (v/v) glycerol, 1 nM labeled RNA or DNA, 25 C. As to conditions: protein: recombinant; tags: N-terminal His tag (pET15b, linker LVPRGSM); single-stranded.

Here are results for 17 molecules from paper PMC6913127, “Structures of MERS1, the 5′ processing enzyme of mitochondrial mRNAs in Trypanosoma brucei” (RNA, 2020).

No end group written: not given here.

As to “5′-GAGAGGGGGGUU-3′: RNA binding site; also used for the MERS1–RNA crystal structure (RNA, backbone not given here)”, the Kd (in general, the constant that tells how readily two partners part at equilibrium) in data set [1] (PanVera Beacon 2000, 25°C, 1 nM fluoresceinated RNA, MERS1 titrated, ± standard error, representative of at least three technical replicates (Fig. 5B)) is 40 ± 0.9 nM.

With “5′-GAGAGGGGGUU-3′: fluoresceintly labeled RNA substrate (RNA, backbone not given here; fluorescein label)”, in data set [1], the “Binding to MERS1, result in words” value is “binds MERS1 with high affinity”.

Regarding “5′-GAGAGGGAGUU-3′ (RNA, backbone not given here)”, the “Binding to MERS1, result in words” value in data set [1] was “did not bind saturably”.

Take “5′-GAGAGGAGGUU-3′ (RNA, backbone not given here)”: the “Binding to MERS1, result in words” value in data set [1] was “did not bind saturably”.

“5′-GAGAGAGGGUU-3′ (RNA, backbone not given here)”: the “Binding to MERS1, result in words” value in data set [1] is reported as “did not bind saturably”.

In the case of “F-SVSKQAVCLMERHLRRVPGARRNELKVAPSKPLKER [peptide in which the first leucine and the glutamic acid in the helix were substituted to prolines]”, the “Peptide binding to MERS1, result in words” value in data set [2] was “only weak binding”.

On to “F-MSNNALDRLINKQKPKVPPRNDVVSESVSN [another fluoresceinated peptide that lacked the consensus residues, reference compound]”, for which the “Peptide binding to MERS1, result in words” value in data set [2] is “failed to interact”.

“5′-GTGAGTACTCAC-3′: DNA site used as comparison in FP binding (DNA, backbone and methylation of C not given here; further chemistry not fully specified) [reference compound]”: the “Binding to MERS1, result in words” value is recorded as “essentially no binding” in data set [1] and “no binding” in data set [1] (listed as DNA).

Consider GAAAGGGGGUU (ssRNA) [RNA G3A], for which, in data set [3] (label: fluorescein), the Kd was 78 ± 4 nM.

For GAGGGGGGGUU (ssRNA) [RNA A4G], in data set [3] (label: fluorescein), the Kd was 47 ± 5 nM.

As to AAGAGGGGGUU (ssRNA) [RNA G1A], the Kd in data set [3] (label: 5' fluorescein) came out at 39 ± 4 nM.

As for GAGAGGGGGUU (ssRNA) [WT RNA site (11-mer, FP)], in data set [4], the Kd turned out to be 40 ± 0.9 nM.

As for GGGAGGGGGUU (ssRNA) [RNA A2G], in data set [3] (label: fluorescein), the Kd worked out at 48 ± 0.9 nM.

B1: fluoresceinated MERS2 peptide F-SVSKQAVCLMERHLRRVPGARRNELKVALSKELKER (peptide)
peptide: fluorescein-SVSKQAVCLMERHLRRVPGARRNELKVALSKELKER
notes: MERS2, T. brucei, 946 residue pentatricopeptide repeat protein; limits worked out from that motif; also called MER2 peptide
Molecule B1 gave a Kd in data set [5] of 2500 nM.

In the case of GAGAGGGGGGUU (ssRNA) [RNA 12-mer (crystal)], in data set [6], the binding result is “binds”.

For the molecule GAGAAGGGGUU (ssRNA) [RNA G5A], the Kd in data set [3] (label: fluorescein) was 43 ± 5 nM.

B2: DNA control (dsDNA)
DNA 1: GTGAGTACTCAC
DNA 2: GTGAGTACTCAC
On to B2, for which the binding result in data set [3] (label: fluorescein, self-complementary 12-mer, blunt if duplex) is on record as “no binding”.
